Measured values as given in US5464617A, “β-lactam compounds” (Hoffmann-La Roche Inc., priority 1994, dated 1995).
In brackets after ≈: the same amount, converted by molar mass. Where a name gives a salt, the structure may show the parent alone.

How the values were obtained:
E. coli 1346 = test: Antibacterial activity of the products per se, serial dilution method in liquid medium (Test E); assay type: cell-based; conditions: Table 4; test E, product per se
Description: The antibacterial activity of the products per se is illustrated on the basis of Table 3 hereinafter, the minimum inhibitory concentration […] in vitro against E. coli 1346 being determined using the serial dilution method in liquid medium: […]

[1] = test system: Citrobacter freundii 1982; test: MIC in vitro of a 1:4 combination of ceftriaxone with a compound of formula I (Test D); assay type: cell-based; conditions: Table 4; test D, 1:4 combination of ceftriaxone with the compound
Procedure: The minimum inhibitory concentration in vitro ([…]) of a 1:4 combination of ceftriaxone with a compound of formula I against Citrobacter freundii 1982 was measured and compiled in Table 2 hereinafter.

Structure (SMILES): CC(=O)N1C[C@H]2OC(CSc3ccncc3)=C(C(=O)O)N3C(=O)[C@@H]1[C@@H]23 [32(a), (1aS,3aR,6bS)-2-Acetyl-5-(pyridin-4-ylsulphanylmethyl)-1-oxo-1,1a,2,3,3a,6b-hexahydro-4-oxa-2,6a-diazacyclobut[cd]indene-6-carboxylic acid sodium salt]
- MIC E. coli 1346 (E) (E. coli 1346): > 32 µg/mL
- MIC C. freundii 1982 (D) [1]: 16 µg/mL

Structure (SMILES): CC(=O)N1C[C@H]2OC(CSc3cc(C)nc4nc(C(N)=O)nn34)=C(C(=O)O)N3C(=O)[C@@H]1[C@@H]23 [32(c), (1aS,3aR,6bS)-2-Acetyl-5-(2-carbamoyl-S-methyl[1,2,4]-triazolo[1,5-a]pyrimidin-7-ylsulphanylmethyl)-1-oxo-1,1a,2,3,3a,6b-hexahydro-4-oxa-2,6a-diazacyclobut[cd]indene-6-carboxylic acid sodium salt]
- MIC E. coli 1346 (E) (E. coli 1346): 4 µg/mL
- MIC C. freundii 1982 (D) [1]: 32 µg/mL

Structure (SMILES): CC(=O)N1C[C@H]2OC(CSc3nnnn3CC(=O)NC3CC3)=C(C(=O)O)N3C(=O)[C@@H]1[C@@H]23 [32(d), (1a-S,3aR,6bS)-2-Acetyl-5-(1-cyclopropylcarbamoylmethyl-1H-tetrazol-5-ylsulphanylmethyl)-1-oxo-1,1a,2,3,3a,6b-hexahydro-4-oxa-2,6a-diazacyclobut[cd]indene-6-carboxylic acid sodium salt]
- MIC E. coli 1346 (E) (E. coli 1346): 16 µg/mL
- MIC C. freundii 1982 (D) [1]: 16 µg/mL

Structure (SMILES): CC(=O)N1C[C@H]2OC(CSc3nnnn3CC(N)=O)=C(C(=O)O)N3C(=O)[C@@H]1[C@@H]23 [32(e), (1aS,3aR,6bS)-2-Acetyl-5-(1-carbamoylmethyl-1H-tetrazol-5-ylsulphanylmethyl)-1-oxo-1,1a,2,3,3a,6b-hexahydro-4-oxa-2,6a-diazacyclobut[cd]indene-6-carboxylic acid sodium salt]
- MIC E. coli 1346 (E) (E. coli 1346): 4 µg/mL
- MIC C. freundii 1982 (D) [1]: 2 µg/mL

Structure (SMILES): CNC(=O)Cn1nnnc1SCC1=C(C(=O)O)N2C(=O)[C@@H]3[C@H]2[C@@H](CN3C(C)=O)O1 [32(f), (1aS,3aR, 6bS)-2-Acetyl-5-(1-methyl-carbamoylmethyl-1H-tetrazol-5-ylsulphanylmethyl)-1-oxo-1,1a,2,3,3a,6b-hexahydro-4-oxa-2,6a-diazacyclobut[cd]indene-6-carboxylic acid sodium salt]
- MIC E. coli 1346 (E) (E. coli 1346): 4 µg/mL
- MIC C. freundii 1982 (D) [1]: 8 µg/mL

Structure (SMILES): CC(=O)N1C[C@H]2OC(CSc3nnnn3CC(=O)NOC(c3ccccc3)(c3ccccc3)c3ccccc3)=C(C(=O)O)N3C(=O)[C@@H]1[C@@H]23 [32(h), (1aS,3aR,6bS)-2-Acetyl-1-oxo-5-(1-(trityloxycarbamoylmethyl)-1H-tetrazol-5-ylsulphanylmethyl)-1,1a,2,3,3a,6b-hexahydro-4-oxa-2,6 a-diazacyclobut[cd]indene-6-carboxylic acid sodium salt]
- MIC E. coli 1346 (E) (E. coli 1346): > 32 µg/mL
- MIC C. freundii 1982 (D) [1]: 64 µg/mL

Structure (SMILES): NC(=O)Cn1nnnc1SCC1=C(C(=O)O)N2C(=O)[C@@H]3[C@H]2[C@@H](CN3C=O)O1 [38(b), (1 aS ,3aR, 6 bS )-5-(1-Carbamoylmethyl-1H-tetrazol-5-yl-sulfanylmethyl)-2-formyl-1-oxo-1,1a,2,3,3a,6b-hexahydro-4-oxa-2,6a-diaza-cyclobut[cd]indene-6-carboxylic acid sodium salt]
- MIC E. coli 1346 (E) (E. coli 1346): 8 µg/mL
- MIC C. freundii 1982 (D) [1]: 4 µg/mL

Structure (SMILES): O=CN1C[C@H]2OC(CSc3nnnn3CC(=O)NOC(c3ccccc3)(c3ccccc3)c3ccccc3)=C(C(=O)O)N3C(=O)[C@@H]1[C@@H]23 [38(d), (1aS,3aR,6bS)-2-Formyl-1-oxo-5-(1-(trityloxycarbamoylmethyl)-1H-tetrazol-5-ylsulphanylmethyl)-1,1a,2,3,3a,6b-hexahydro-4-oxa-2,6a-diazacyclobut[cd]indene-6-carboxylic acid sodium salt]
- MIC E. coli 1346 (E) (E. coli 1346): > 32 µg/mL
- MIC C. freundii 1982 (D) [1]: 128 µg/mL

Structure (SMILES): Cn1ccnc1SCC1=C(C(=O)O)N2C(=O)[C@H]3NC[C@@H](S1)[C@H]32 [40(c), (1aS,3aR,6bS)-5-(1-Methyl-imidazol-2-ylsulphanyl-methyl)-1-oxo-4-thia-1,1a,2,3,3a,6b-hexahydro-2,6a-diazacyclobut[cd]indene-6-carboxylic acid]
- MIC E. coli 1346 (E) (E. coli 1346): > 32 µg/mL
- MIC C. freundii 1982 (D) [1]: 0.5 µg/mL

Structure (SMILES): Cn1c(O)nnc1SCC1=C(C(=O)O)N2C(=O)[C@H]3NC[C@@H](S1)[C@H]32 [40(d), (1aS,3aR,6bS)-5-(5-Hydroxy-4-methyl-4H-[1,2,4]-triazol-3-ylsulphanylmethyl)-1-oxo-4-thia-1,1a,2,3,3a,6b-hexahydro-2,6a-diazacyclobut[cd]indene-6-carboxylic acid]
- MIC E. coli 1346 (E) (E. coli 1346): 8 µg/mL (≈ 22.5 µM)
- MIC C. freundii 1982 (D) [1]: 2 µg/mL

Structure (SMILES): Nc1nnc(SCC2=C(C(=O)O)N3C(=O)[C@H]4NC[C@@H](S2)[C@H]43)s1 [40(e), (1aS,3aR,6bS)-5-(5-Amino-1,3,4-thiadiazol-2-ylsulphanylmethyl)-1-oxo-4-thia-1,1a,2,3,3a,6b-hexahydro-2,6a-diazacyclobut[cd]indene-6-carboxylic acid]
- MIC E. coli 1346 (E) (E. coli 1346): 32 µg/mL (≈ 89.5 µM)
- MIC C. freundii 1982 (D) [1]: 1 µg/mL

Structure (SMILES): O=C(O)C1=C(CSc2ccncc2)S[C@@H]2CN[C@@H]3C(=O)N1[C@@H]32 [40(f), (1aS,3aR,6bS)-1-Oxo-5-(pyridin-4-ylsulphanylmethyl)-4-thia-1,1a,2,3,3a,6b-hexahydro-2,6a-diazacyclobut[cd]indene-6-carboxylic acid]
- MIC E. coli 1346 (E) (E. coli 1346): 32 µg/mL (≈ 95.4 µM)
- MIC C. freundii 1982 (D) [1]: 2 µg/mL

Structure (SMILES): O=C(O)C1=C(CSc2nnnn2CC(=O)N2CCOCC2)S[C@@H]2CN[C@@H]3C(=O)N1[C@@H]32 [40(g), (1aS,3aR,6bS)-5-[1-(2-Morpholin-4-yl-2-oxo-ethyl)-1H-tetrazol-5-ylsulphanylmethyl]-1-oxo-4-thia-1,1a,2,3,3a,6b-hexahydro-2,6a-diazacyclobut[cd]indene-6-carboxylic acid]
- MIC E. coli 1346 (E) (E. coli 1346): > 32 µg/mL
- MIC C. freundii 1982 (D) [1]: 4 µg/mL

Structure (SMILES): Cc1nnc(SCC2=C(C(=O)O)N3C(=O)[C@H]4NC[C@@H](S2)[C@H]43)s1 [40(h), (1aS,3aR,6bS)-5-[5-Methyl-1,3,4-thiadiazol-2-ylsulphanylmethyl]-1-oxo-4-thia-1,1a,2,3,3a,6b-hexahydro-2,6a-diazacyclobut[cd]indene-6-carboxylic acid]
- MIC E. coli 1346 (E) (E. coli 1346): 8 µg/mL (≈ 22.4 µM)
- MIC C. freundii 1982 (D) [1]: 0.5 µg/mL

Structure (SMILES): O=C(O)C1=C(CSc2ccnc3c2CCC3)S[C@@H]2CN(C(=O)Nc3ccc(O)cc3)[C@@H]3C(=O)N1[C@@H]32 [41(a), (1aS,3aR,6bS)-2-(4-Hydroxy-phenylcarbamoyl)-5-(6,7-dihydro-5H-1-pyrindin-4-ylsulphanylmethyl)-1-oxo-4-thia-1,1a,2,3,3a,6b-hexahydro-2,6a-diazacyclobut[cd]indene-6-carboxylic acid sodium salt]
- MIC E. coli 1346 (E) (E. coli 1346): > 32 µg/mL
- MIC C. freundii 1982 (D) [1]: 2 µg/mL

Structure (SMILES): O=C(O)C1=C(CSc2ccncc2)S[C@@H]2CN(C(=O)Nc3ccc(O)cc3)[C@@H]3C(=O)N1[C@@H]32 [41(b), (1aS,3aR,6bS)-2-(4-Hydroxy-phenylcarbamoyl)-1-oxo-5-(pyridin-4-ylsulphanylmethyl)-4-thia-1,1a,2,3,3a,6b-hexahydro-2,6a-diazacyclobut[cd]indene-6-carboxylic acid sodium salt]
- MIC E. coli 1346 (E) (E. coli 1346): > 32 µg/mL
- MIC C. freundii 1982 (D) [1]: 4 µg/mL

Structure (SMILES): Cc1nnc(SCC2=C(C(=O)O)N3C(=O)[C@@H]4[C@H]3[C@@H](CN4C(=O)Nc3ccc(O)cc3)S2)s1 [41(c), (1aS,3aR,6bS)-2-(4-Hydroxy-phenylcarbamoyl)-5-(5-methyl-1,3,4-thiadiazol-2-ylsulphanylmethyl)-1-oxo-4-thia-1,1a,2,3,3a,6b-hexahydro-2,6a-diazacyclobut[cd]indene-6-carboxylic acid sodium salt]
- MIC E. coli 1346 (E) (E. coli 1346): > 32 µg/mL
- MIC C. freundii 1982 (D) [1]: 1 µg/mL

Structure (SMILES): O=C(O)C1=C(CO)S[C@@H]2CN(C(=O)Nc3ccc(O)cc3)[C@@H]3C(=O)N1[C@@H]32 [41(d) Byproduct]
- MIC E. coli 1346 (E) (E. coli 1346): > 32 µg/mL
- MIC C. freundii 1982 (D) [1]: 1 µg/mL

Structure (SMILES): Cn1nnnc1SCC1=C(C(=O)O)N2C(=O)[C@@H]3[C@H]2[C@@H](CN3C(=O)Nc2ccc(O)cc2)S1 [41(d), (1aS,3aR,6bS)-2-(4-Hydroxy-phenylcarbamoyl)-5-(1-methyl-1H-tetrazol-5-ylsulphanylmethyl)-1-oxo-4-thia-1,1a,2,3,3a,6b-hexahydro-2,6a-diazacyclobut[cd]indene-6-carboxylic acid sodium salt]
- MIC E. coli 1346 (E) (E. coli 1346): > 32 µg/mL
- MIC C. freundii 1982 (D) [1]: 0.5 µg/mL

Structure (SMILES): CC(=O)N1C[C@H]2SC(CSc3nnc(C)s3)=C(C(=O)O)N3C(=O)[C@@H]1[C@@H]23 [42(a), (1aS,3aR,6bS)-2-Acetyl-5-(5-methyl-1,3,4-thiadiazol-2-ylsulphanylmethyl)-1-oxo-4-thia-1,1a,2,3,3a,6b-hexahydro-2,6a-diazacyclobut[cd]indene-6-carboxylic acid sodium salt]
- MIC E. coli 1346 (E) (E. coli 1346): 2 µg/mL
- MIC C. freundii 1982 (D) [1]: 1 µg/mL

Structure (SMILES): CC(=O)N1C[C@H]2SC(CSc3ccncc3)=C(C(=O)O)N3C(=O)[C@@H]1[C@@H]23 [42(b), (1aS,3aR,6bS)-2-Acetyl-1-oxo-5-(pyridin-4-ylsulphanylmethyl)-4-thia-1,1a,2,3,3a,6b-hexahydro-2,6a-diazacyclobut[cd]indene-6-carboxylic acid sodium salt]
- MIC E. coli 1346 (E) (E. coli 1346): 0.5 µg/mL
- MIC C. freundii 1982 (D) [1]: 2 µg/mL

Structure (SMILES): Cn1nnnc1SCC1=C(C(=O)O)N2C(=O)[C@@H]3[C@H]2[C@@H](CN3C(=O)CSc2nnc(N)s2)S1 [42(c), (1aS,3aR,6bS)-2-(2-Amino-1,3,4-thiadiazol-5-ylsulphanylacetyl)-5-(1-methyl-1H-tetrazol-5-ylsulphanylmethyl)-1-oxo-4-thia-1,1a,2,3,3a,6b-hexahydro-2,6a-diazacyclobut[cd]indene-6-carboxylic acid sodium salt]
- MIC E. coli 1346 (E) (E. coli 1346): 16 µg/mL
- MIC C. freundii 1982 (D) [1]: 0.2 µg/mL
